These results are taken from PubChem BioAssay (NCI).

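1) Cells in 96-well plates. 2) Compound, 48 h, 5 concentrations. 3) Linear interpolation between surrounding doses. 4) Unreached endpoint = highest concentration. GI50 = concentration required for 50% inhibition of growth. Definition used: TGI = concentration required for complete inhibition of growth.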

What all share (experiment): NCI-60 cell line screen, 48 h
For test [1], the system named is CCRF-CEM leukemia.
Test [2] deals with HCT-116 colon.
For test [3], the system named is HL-60(TB) leukemia.
Test [4] relates to MCF7 breast.
Test [5] has as its system MDA-MB-231 breast.
Test [6] concerns PC-3 prostate.
The test system of test [7] is SK-MEL-2 melanoma.
Test [8] has as its system TK-10 renal.
The subject of test [9] is UACC-257 melanoma.
For test [10], the system named is UO-31 renal.

`CCOC(=O)c1cc(C(=O)c2cc(OC)c(OC)c(OC)c2)n2c1ccc1ccccc12`: the GI50 in test [1] was 0.322 µM; in test [2] it was 0.271 µM; in [3] it was 0.338 µM; in test [4] it was 0.1 µM; in [5] it was 1.48 µM; in test [6], 0.294 µM. The GI50 is 0.932 µM in [7], 2.37 µM in test [8], 2.27 µM in [9] and 0.502 µM in [10]. In addition, the TGI in test [1], in [2], in [3], in [4], in test [5] and in test [6] was greater than 100 µM each time. Besides, the TGI in [7], in test [8], in test [9] and in test [10] was greater than 100 µM each time.
Turning to `COc1ccc(Nc2cc(C)nc(NCc3ccccc3)n2)cc1`, the GI50 in test [1] was 3.06 µM; in [2] it was 2.49 µM; in test [3], 4.91 µM; in test [4], 3.51 µM; in test [5], 3.45 µM; in [6], 3.25 µM. In addition, the GI50 is 6.34 µM in test [7], 5.48 µM in [8], 3.18 µM in test [9] and 2.77 µM in test [10]. The TGI in test [1] is 23.7 µM; in [2], 13 µM; in [3] it was 27.6 µM; in test [4], 18.9 µM; in test [5] it was 16.1 µM; in test [6], 19 µM. Moreover, the TGI stood at 23.8 µM in test [7], 18.9 µM in test [8], 13.3 µM in test [9] and 15.9 µM in test [10].
With `Cc1ccc(-c2cc3c4c(nc5ccccc53)C(=O)c3cccnc3-c4n2)cc1`, the GI50 was 8.04 µM in [1]; 7.65 µM in test [2]; 1.35 µM in [3]; 1.85 µM in test [4]; 16.8 µM in test [5]; 17.3 µM in test [6]. In addition, the GI50 in test [7] is 15 µM; in test [8], 26.4 µM; in [9] it was 6.01 µM; in test [10], 17.1 µM. The TGI in test [1] is greater than 100 µM; in test [2] it was 22.8 µM; in test [3], greater than 100 µM; in test [4] it was 6.31 µM; in test [5], greater than 69.9 µM; in test [6] it was greater than 83.8 µM. Moreover, the TGI in test [7] was 38 µM; in test [8], 97.3 µM; in test [9], 20.8 µM; in [10], greater than 82.6 µM.
For the molecule `C#CCN(Cc1nc2cc(C(F)(F)F)ccc2nc1-c1ccccc1)c1ccc(C)cc1`, the GI50 was greater than 55.7 µM in test [1]; 0.628 µM in test [2]; 3.85 µM in [3]; 2.38 µM in [4]; 9.39 µM in [5]; greater than 62.6 µM in [6]. Also, the GI50 is 6.19 µM in [7], 15.4 µM in [8], 19.5 µM in test [9] and 13.2 µM in test [10]. Also, the TGI in [1] is greater than 100 µM; in [2] it was 15.5 µM; in test [3], greater than 74.5 µM; in [4], greater than 59.1 µM; in [5] it was 40.4 µM; in test [6], greater than 100 µM. Besides, the TGI in [7] was 34.5 µM; in test [8], greater than 39.6 µM; in test [9] it was 59 µM; in test [10], 45.5 µM.
`CC[C@@H](C(=O)[C@H](C)[C@H](O)[C@@H](C)[C@H]1O[C@H]([C@@H](CC)C(=O)N(CC)CC)CC[C@H]1C)C1O[C@]2(C=C[C@@H](O)[C@]3(CC[C@@](C)([C@H]4CC[C@](O)(CC)[C@H](C)O4)O3)O2)[C@H](C)C[C@@H]1C` (stereo not given in full): the GI50 is 3.39 µM in test [1]; 2.9 µM in test [2]; 2.24 µM in test [3]; 2.61 µM in [4]; 1.86 µM in test [5]; 2.54 µM in test [6]. Moreover, the GI50 in test [7] was 3.19 µM; in [8], 3.35 µM; in test [9], 3.07 µM; in [10], 2.4 µM. For the same molecule, the TGI amounted to 13.4 µM in test [1]; 12.5 µM in test [2]; 5.13 µM in test [3]; 10.1 µM in test [4]; 4.29 µM in [5]; 11.9 µM in test [6]. Also, the TGI is 9.21 µM in test [7], 26.7 µM in [8], 12.4 µM in [9] and 7.94 µM in test [10].
`CC1(C)CC[C@]2(C(=O)O)CC[C@]3(C)C(=CC[C@@H]4[C@@]5(C)C[C@H](O)[C@H](O)[C@@](C)(C(=O)O)[C@@H]5CC[C@]43C)[C@@H]2C1`: the TGI was greater than 100 µM in test [1]; greater than 100 µM in test [2]; greater than 31.6 µM in test [3]; greater than 100 µM in [4]; greater than 100 µM in test [5]; greater than 100 µM in test [6]. In addition, the TGI in [7], in test [8], in test [9] and in test [10] was greater than 100 µM throughout.
On to `O=C(NC(=O)c1ccccc1[N+](=O)[O-])Nc1ccc(Oc2ncc(Cl)cn2)c([N+](=O)[O-])c1`, for which the TGI in test [1] was greater than 100 µM; in test [2], greater than 100 µM; in test [3], 1.17 µM; in test [4], greater than 100 µM; in test [5] it was 63.1 µM; in [6] it was greater than 100 µM. In addition, the TGI in test [7] is greater than 100 µM; in test [8] it was greater than 100 µM; in [9] it was greater than 100 µM; in [10], greater than 95.7 µM.
`CCc1nc(N)nc(N)c1-c1ccc2nnn(O)c2c1`: the TGI in [1], in test [2], in test [3], in [4], in test [5] and in test [6] was greater than 100 µM throughout. Moreover, the TGI in [7], in [8], in test [9] and in test [10] was greater than 100 µM in each case.
Regarding `O=C(O)C(C(=O)O)P(=S)(S)c1ccccc1` (stereo not given), the TGI in [1], in test [2], in test [3], in test [4], in test [5] and in test [6] was greater than 100 µM in each case. The TGI in [7], in [8], in test [9] and in test [10] was greater than 100 µM each time.
